This note sets out measurements from US20260000766A1, “ULTRASOUND OPTOGENETIC COMPOSITIONS AND METHODS” (BOARD OF REGENTS, THE UNIVERSITY OF TEXAS SYSTEM, priority 2022, published 2026).

A short description of the series: Fluorescence spectrum tests of L012 at different pH and H2O2 concentration. Format: physicochemical. The procedure: The fluorescence spectrum tests of L012 at different pH and H2O2 concentration. the quantum yield of the L012 solution at different Ph was investigated. 1 mL L012 solution (0.5 mg/mL) with pH 7.4, 8.5, and 10.0 was mixed with H2O2, where the final concentration of H2O2 was 250 μM. The fluorescence spectrum was recorded via Fluorolog3 Fluorometer. In addition, we also investigated the quantum yield of the L012 solution with different H2O2 concentrations at pH 7.4. 1 mL L012 solution (0.5 mg/mL) with different H2O2 concentrations (50, 250, and 500 μM) at pH 7.4 was prepared at first, and the fluorescence spectrum was also recorded via Fluorolog3 Fluorometer.

Molecules are shown by their SMILES.

With `Nc1c(-c2ccccc2)nc(Cl)c2c([O-])n[nH]c(=O)c12.[Na+]` [L012, L012 sodium salt], the “improvement of fluorescence intensity” value (H2O2 concentration increased from 50 to 500 μM) is “around four”. The “increase of fluorescence intensity” value (pH changed from 7.4 to 10) is reported as “around 30%”.
